Here are results for six compounds from US12357629B2, “Uses of BCL-2 antagonists for treating cancer and diagnostics related thereto” (Emory University, priority 2018, dated 2025).

Entries after “also recorded” stand apart in the source; their conditions may differ. Where two headings read alike, the source gives them in different places.

The subject of data set [1] is ABT-199 resistant MM lines (KMS11, L363, RPMI-8226, MM.1S, U266). How it is done:
Complex I inhibition with piercidin or SDHA inhibition with 3-NPA. L363, MM.15 and KMS 11 cells were cultured in the presence or absence of 0.S μM ABT-199 with or without either Complex I inhibitor piericidin (0.001 mM) or Complex II inhibitor 3NPA (1 mM) or TTFA (100 μM) for 24 hrs.
KMS11, L363, RPMI-8226, MM.1S, U266 (ABT-199 resistant cell lines) and KMS12PE and OCIMY5 (ABT-199 sensitive cell lines) were cultured in presence of SQR inhibitor TTFA (100 uM) or DEX (0.5 uM) either alone or in combination with ABT-199 (0.5 uM) for 24 hrs. Cell viability was assessed by Annexin V-DAPI staining and Flow cytometry.
Resistant MM lines were treated with TTFA and/or a dose range of ABT-199 and cell death evaluated by Annexin V/DAPI staining.

The subject of data set [2] is normal cell populations contained within the bone marrow aspirate of patient sample. The data set can be described thus: Cytotoxicity in normal cells within myeloma patient sample. In kind it is cell-based. From the text:
Synthetic lethality are not cytotoxic as a single agent in cell lines or primary normal cells associated with a myeloma patient sample.

For data set [3], the system named is MM patients exhibiting the (11;14) translocation. Particulars: t(11;14) patients, cited from earlier work.
Data set [4] deals with CD38+ve MM cells from myeloma patient samples. The data set can be described thus: Cytotoxicity in myeloma patient sample cells. The following applies: TTFA with ABT-199. In kind it is cell-based, human.
The target in data set [5] is Complex II/SDH succinate ubiquinone reductase (SQR) activity (Homo sapiens, UniProt O14521+P21912+P31040+Q99643). The data set is described as follows: SQR (succinate ubiquinone reductase) activity assay in permeabilized cells, DCPIP absorbance at 600 nm. The following applies: for SQR activity upon addition of inhibitor: KMS11 cells, 20 mM succinate as substrate, malonate 5 mM.
Sequence of Complex II/SDH succinate ubiquinone reductase (SQR) activity (P31040 43-664): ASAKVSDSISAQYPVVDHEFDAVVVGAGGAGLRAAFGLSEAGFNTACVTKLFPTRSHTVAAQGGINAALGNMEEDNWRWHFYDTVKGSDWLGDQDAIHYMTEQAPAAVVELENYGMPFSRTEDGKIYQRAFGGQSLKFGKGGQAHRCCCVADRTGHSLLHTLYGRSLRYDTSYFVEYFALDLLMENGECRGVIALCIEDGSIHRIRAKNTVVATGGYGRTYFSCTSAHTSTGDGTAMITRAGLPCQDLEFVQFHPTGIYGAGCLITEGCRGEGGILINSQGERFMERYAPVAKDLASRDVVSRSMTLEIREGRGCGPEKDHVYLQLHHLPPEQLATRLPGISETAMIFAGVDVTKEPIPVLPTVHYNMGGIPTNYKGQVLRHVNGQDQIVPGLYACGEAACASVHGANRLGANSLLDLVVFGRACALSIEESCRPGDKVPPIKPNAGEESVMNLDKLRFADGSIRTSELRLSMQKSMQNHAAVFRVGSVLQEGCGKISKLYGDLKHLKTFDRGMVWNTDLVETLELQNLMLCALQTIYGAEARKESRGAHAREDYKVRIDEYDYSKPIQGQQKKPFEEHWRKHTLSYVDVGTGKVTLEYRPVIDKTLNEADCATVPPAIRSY
Sequence of Complex II/SDH succinate ubiquinone reductase (SQR) activity (P21912 29-280): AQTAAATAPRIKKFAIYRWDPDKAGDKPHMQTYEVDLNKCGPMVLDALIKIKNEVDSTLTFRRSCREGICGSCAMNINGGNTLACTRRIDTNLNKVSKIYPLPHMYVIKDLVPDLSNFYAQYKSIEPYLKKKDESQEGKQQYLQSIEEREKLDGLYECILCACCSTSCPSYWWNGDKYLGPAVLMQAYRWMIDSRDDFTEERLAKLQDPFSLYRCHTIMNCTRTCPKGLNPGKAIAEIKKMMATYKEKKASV
Sequence of Complex II/SDH succinate ubiquinone reductase (SQR) activity (Q99643 30-169): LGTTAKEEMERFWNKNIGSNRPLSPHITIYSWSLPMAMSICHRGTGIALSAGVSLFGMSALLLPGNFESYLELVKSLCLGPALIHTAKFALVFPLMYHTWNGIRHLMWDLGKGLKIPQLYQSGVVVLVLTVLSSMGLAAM
Sequence of Complex II/SDH succinate ubiquinone reductase (SQR) activity (O14521 57-159): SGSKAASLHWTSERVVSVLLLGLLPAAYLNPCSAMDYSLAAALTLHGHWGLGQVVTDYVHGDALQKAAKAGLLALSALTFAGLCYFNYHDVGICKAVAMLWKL
Procedure: Cells are resuspended in permeabilization buffer (10 mM KH2PO4 pH 7.8, 2 mM EDTA and 1 mg/ml BSA). 20 mM succinate is added as a substrate with or without 5 mM malonate (an SDH inhibitor) followed by a 10 min incubation at RT. SQR activity is determined by measuring electron transfer from succinate to decylubiquinone and 2,6-dichlorophenolindophenol (DCPIP) that leads to a change in absorbance of DCPIP monitored at 600 nm for 10 min.
SQR activity is measured in live permeabilized cells, with intact mitochondria by pre-treating with inhibitors of Complex I (rotenone) and Complex III (antimycin) leaving Complex II/SDH activity intact. SQR activity correlates with electron transfer from ubiquinone bound in SQR's Qp site to the redox sensitive dye, DCIPIP.

Data set [6] has as its system BIM, BIM-Bcl-2 binding, Foxo3a. The data set is described as follows: Protein expression and co-immunoprecipitation analyses upon SDH inhibition. In kind it is cell-based. From the text: Thus, a tumor selective approach of metabolically-driven synthetic lethality relies on inhibition of the mitochondrial enzyme SDH and use of the Bcl-2 antagonist, e.g., ABT-199 for myeloma therapy.

Where [7] appears, read: ABT-199 0.5 μM with TTFA 100 μM, piericidin 0.001 mM or 3NPA 1 mM, 24 hrs, Annexin V/DAPI.

Turning to `O=C(O)CC[N+](=O)[O-]` [3-NPA], the “Sensitization of resistant MM cell lines to ABT-199” value in data set [1] (setting [7]) is recorded as “not as effective”; in data set [1] (ABT-199 0.5 μM with TTFA 100 μM, piericidin 0.001 mM or 3NPA 1 mM, 24 hrs, Annexin V/DAPI, listed as 3NPA), “not as effective as TTFA”.

Consider `CC1(C)CCC(CN2CCN(c3ccc(C(=O)NS(=O)(=O)c4ccc(NCC5CCOCC5)c([N+](=O)[O-])c4)c(Oc4cnc5[nH]ccc5c4)c3)CC2)=C(c2ccc(Cl)cc2)C1` [ABT-199, 4-(4-{[2-(4-chlorophenyl)-4,4-dimethylcyclohex-1-en-1-yl]methyl}piperazin-1-yl)-N-({3-nitro-4-[(tetrahydro-2H-pyran-4-ylmethyl)amino]phenyl}sulfonyl)-2-(1H-pyrrolo[2,3-b]pyridin-5-yloxy)benzamide], for which the “Cytotoxicity in normal cells of myeloma patient sample” value in data set [2] (bone marrow aspirate of patient sample #2) is on record as “did not exhibit significant cytotoxicity”. Also, in data set [1] (individually), the “Cytotoxicity as single agent in MM” value is on record as “did not elicit cytotoxicity”. The “Share of t(11;14) MM patients responsive to single agent” value in data set [3] (listed as venetoclax) is “About 40%”; in data set [3], 40%.

As for `O=C(CC(=O)C(F)(F)F)c1cccs1` [TTFA, 4,4,4-trifluoro-1-(thiophen-2-yl)butane-1,3-dione], the “Cytotoxicity in normal cells of myeloma patient sample” value in data set [2] is “did not exhibit significant cytotoxicity”. Also, the “Sensitization of MM patient cells to ABT-199” value in data set [4] was “potent sensitization; also recorded: sensitizes”. Besides, the “SQR activity upon addition of inhibitor” value in data set [5] is “lack of activity”. In data set [5] (MM cells), the “SQR activity at maximal dose of TTFA that did not cause cytotoxicity in MM” value is “inhibited SQR activity”. In addition, in data set [1], the “Cytotoxicity as single agent in MM” value is “did not elicit cytotoxicity” and the “Sensitization of resistant MM cell lines to ABT-199” value is reported as “potent sensitization; also recorded: sensitizes MM cells to ABT-199; also recorded: sensitized resistant MM cells to ABT-199”. In addition, in data set [1] (TTFA 100 uM, DEX 0.5 uM, ABT-199 0.5 uM, 24 hrs), the “Effect on Dex-induced death” value was “additive to Dex-induced death”. In addition, in data set [6] (SDH inhibition with TTFA), the BIM expression result is listed as “induction of BIM” and the “BIM-Bcl-2 binding (co-immunoprecipitation)” value is “enhanced BIM-Bcl-2 binding”. Moreover, in data set [6] (TTFA treated cells), the Foxo3a localization result is recorded as “nuclear localization” and the Foxo3a phosphorylation entry is recorded as “reduction of Foxo3a phosphorylation”.

`COc1[nH]c(=O)c(C(=O)C(C)CC(C)C(Cl)CCl)c(O)c1OC` (centres unmarked) [atpenin A5, 3-[5,6-dichloro-2,4-dimethylhexanoyl]-4-hydroxy-5,6-dimethoxy-1H-pyridin-2-one]: the “Sensitization of resistant MM cell lines to ABT-199” value in data set [1] (setting [7]) is given as “sensitizes resistant cell lines”.

Turning to `C/C=C(\C)[C@H](O)[C@H](C)/C=C(C)/C=C/C/C(C)=C/Cc1nc(OC)c(OC)c(O)c1C` [piericidin], the “Sensitization of resistant MM cell lines to ABT-199” value in data set [1] (setting [7]) was “not as effective”.

malonate: the “SQR activity upon addition of inhibitor” value in data set [5] is on record as “lack of activity”.
